Data taken from ChEMBL document CHEMBL1155340, “Discovery of a novel azepine series of potent and selective 5-HT2C agonists as potential treatments for urinary incontinence” (Bioorg Med Chem Lett, 2009).

How the values were obtained:
physchem = conditions: buffer, pH 7.4
Description: Lipophilicity, log D at pH 7.4

[1] = biological target: T1, 5-hydroxytryptamine receptor 2C (Homo sapiens, UniProt P28335)
T1 sequence (P28335 whole entry): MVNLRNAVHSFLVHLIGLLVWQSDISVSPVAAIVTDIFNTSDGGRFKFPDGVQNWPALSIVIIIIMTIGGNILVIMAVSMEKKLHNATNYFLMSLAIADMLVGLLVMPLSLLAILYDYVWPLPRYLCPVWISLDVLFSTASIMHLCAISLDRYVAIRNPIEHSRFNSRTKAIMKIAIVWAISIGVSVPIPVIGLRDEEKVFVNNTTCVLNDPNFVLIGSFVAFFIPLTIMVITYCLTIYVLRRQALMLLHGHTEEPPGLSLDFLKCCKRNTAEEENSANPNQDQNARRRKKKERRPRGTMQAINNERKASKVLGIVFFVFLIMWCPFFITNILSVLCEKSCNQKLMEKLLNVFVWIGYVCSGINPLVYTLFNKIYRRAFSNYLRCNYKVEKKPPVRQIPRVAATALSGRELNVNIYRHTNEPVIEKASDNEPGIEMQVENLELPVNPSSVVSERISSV

[2] = biological target: T2, 5-hydroxytryptamine receptor 2B (Homo sapiens, UniProt P41595)
[3] = biological target: T2, 5-hydroxytryptamine receptor 2B; assay: Agonist activity at human recombinant 5HT2B receptor assessed as induction of calcium mobilization at 10 uM by FLIPR assay relative to 5-HT; format: functional
[4] = biological target: T3, 5-hydroxytryptamine receptor 2C (Homo sapiens) (UniProt P28335); assay: Agonist activity at human recombinant 5HT2C receptor expressed in CHO K1 cells assessed as induction of calcium mobilization by FLIPR assay relative to 5-HT; format: functional, cell-based
T3 sequence (whole entry): T1 sequence (P28335 whole entry)

in vitro = conditions: human, liver microsomes
Description: (§1) Metabolic stability in human liver microsomes assessed per mg of protein

[5] = biological target: T2, 5-hydroxytryptamine receptor 2B; assay: Agonist activity at human recombinant 5HT2B receptor assessed as induction of calcium mobilization by FLIPR assay relative to 5-HT; format: functional
MDR1 = assay: in vitro; conditions: dog, MDCK-MDR1
Description: Apparent membrane permeability across apical to basolateral side of MDR1 expressing MDCK cells

Liver microsomes = conditions: human
Description: as §1

[6] = biological target: 5-hydroxytryptamine receptor 2A (Canis lupus familiaris, UniProt O46635); assay: Agonist activity at 5-HT2A receptor in dog bladder strip; format: functional
[7] = biological target: Voltage-gated inwardly rectifying potassium channel KCNH2 (Homo sapiens, UniProt Q12809); assay: Displacement of dofrtilide from human ERG channel
Cytochrome P450 2D6 = Cytochrome P450 2D6 (Homo sapiens, UniProt P10635); assay: Inhibition of CYP2D6; format: ADME
Cytochrome P450 1A2 = biological target: T4, Cytochrome P450 1A2 (Homo sapiens, UniProt P05177); assay: Inhibition of CYP1A2; format: ADME
T4 sequence (P05177 whole entry): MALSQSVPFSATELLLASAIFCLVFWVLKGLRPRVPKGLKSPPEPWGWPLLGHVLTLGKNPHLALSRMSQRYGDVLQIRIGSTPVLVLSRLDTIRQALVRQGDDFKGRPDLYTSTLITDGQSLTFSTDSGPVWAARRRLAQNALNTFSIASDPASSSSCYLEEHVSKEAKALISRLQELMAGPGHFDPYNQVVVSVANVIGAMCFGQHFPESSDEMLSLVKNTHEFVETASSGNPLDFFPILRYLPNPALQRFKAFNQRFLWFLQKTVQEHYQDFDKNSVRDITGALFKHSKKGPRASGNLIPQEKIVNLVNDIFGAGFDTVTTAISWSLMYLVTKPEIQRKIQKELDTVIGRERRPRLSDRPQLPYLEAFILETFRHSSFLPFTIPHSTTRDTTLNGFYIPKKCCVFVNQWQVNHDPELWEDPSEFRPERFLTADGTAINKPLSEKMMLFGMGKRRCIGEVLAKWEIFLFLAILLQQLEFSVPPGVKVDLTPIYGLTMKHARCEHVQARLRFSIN

[8] = biological target: Muscarinic acetylcholine receptor M3 (Homo sapiens, UniProt P20309); assay: Inhibition of muscarinic receptor 3
Canis familiaris = assay: Increase of peak urethral pressure in dog model of stress incontinence at 150 ug/kg, iv after 60 mins; format: functional, Canis lupus familiaris, Urethra
[9] = Plasma concentration in dog model of stress incontinence at 150 ug/kg, iv after 60 mins; format: ADME, organism-based, Canis lupus familiaris; conditions: 0.15 mg/kg
[10] = biological target: T5, 5-hydroxytryptamine receptor 3A (Homo sapiens, UniProt P46098); assay: Inhibition of 5HT3 receptor
T5 sequence (P46098 whole entry): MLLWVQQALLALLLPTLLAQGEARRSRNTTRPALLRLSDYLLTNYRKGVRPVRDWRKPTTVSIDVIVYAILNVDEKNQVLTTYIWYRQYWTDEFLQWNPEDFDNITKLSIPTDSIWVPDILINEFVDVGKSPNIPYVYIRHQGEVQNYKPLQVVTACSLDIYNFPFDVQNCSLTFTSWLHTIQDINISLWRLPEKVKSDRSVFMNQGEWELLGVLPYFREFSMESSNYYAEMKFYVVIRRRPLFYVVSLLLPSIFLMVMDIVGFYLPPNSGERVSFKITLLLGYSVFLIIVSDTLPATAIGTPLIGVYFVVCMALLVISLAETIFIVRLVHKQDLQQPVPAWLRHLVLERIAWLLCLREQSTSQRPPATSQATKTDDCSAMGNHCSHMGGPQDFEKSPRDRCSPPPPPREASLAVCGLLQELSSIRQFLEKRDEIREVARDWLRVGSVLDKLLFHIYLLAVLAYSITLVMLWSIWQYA

Cytochrome P450 2C9 = Cytochrome P450 2C9 (Homo sapiens, UniProt P11712); assay: Inhibition of CYP2C9; format: ADME
[11] = biological target: Beta-2 adrenergic receptor (Homo sapiens, UniProt P07550); assay: Inhibition of beta2 adrenergic receptor
[12] = biological target: 5-hydroxytryptamine receptor 2A (Canis lupus familiaris) (UniProt O46635); assay: Agonist activity at 5-HT2A receptor in dog bladder strip relative to 5-HT; format: functional
Cytochrome P450 3A4 = Cytochrome P450 3A4 (Homo sapiens, UniProt P08684); assay: Inhibition of CYP3A4; format: ADME
Homo sapiens = organism: Homo sapiens; assay: Selectivity ratio of EC50 for human recombinant 5HT2B receptor to EC50 for human recombinant 5HT2A receptor

T2 sequence (P41595 whole entry): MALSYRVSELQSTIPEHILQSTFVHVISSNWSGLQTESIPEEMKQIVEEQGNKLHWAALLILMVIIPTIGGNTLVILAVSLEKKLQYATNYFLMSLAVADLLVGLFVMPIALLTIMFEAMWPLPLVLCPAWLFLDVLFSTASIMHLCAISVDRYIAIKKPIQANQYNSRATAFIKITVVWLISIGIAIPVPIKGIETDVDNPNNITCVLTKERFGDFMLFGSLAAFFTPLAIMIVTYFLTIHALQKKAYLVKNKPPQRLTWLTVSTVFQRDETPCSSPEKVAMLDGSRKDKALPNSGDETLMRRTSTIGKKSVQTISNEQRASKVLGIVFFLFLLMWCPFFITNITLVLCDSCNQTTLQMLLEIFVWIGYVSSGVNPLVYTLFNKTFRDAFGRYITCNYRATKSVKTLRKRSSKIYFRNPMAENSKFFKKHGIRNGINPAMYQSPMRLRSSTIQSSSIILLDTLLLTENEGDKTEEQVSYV
Chain of 5-hydroxytryptamine receptor 2A (Canis lupus familiaris) (O46635 whole entry): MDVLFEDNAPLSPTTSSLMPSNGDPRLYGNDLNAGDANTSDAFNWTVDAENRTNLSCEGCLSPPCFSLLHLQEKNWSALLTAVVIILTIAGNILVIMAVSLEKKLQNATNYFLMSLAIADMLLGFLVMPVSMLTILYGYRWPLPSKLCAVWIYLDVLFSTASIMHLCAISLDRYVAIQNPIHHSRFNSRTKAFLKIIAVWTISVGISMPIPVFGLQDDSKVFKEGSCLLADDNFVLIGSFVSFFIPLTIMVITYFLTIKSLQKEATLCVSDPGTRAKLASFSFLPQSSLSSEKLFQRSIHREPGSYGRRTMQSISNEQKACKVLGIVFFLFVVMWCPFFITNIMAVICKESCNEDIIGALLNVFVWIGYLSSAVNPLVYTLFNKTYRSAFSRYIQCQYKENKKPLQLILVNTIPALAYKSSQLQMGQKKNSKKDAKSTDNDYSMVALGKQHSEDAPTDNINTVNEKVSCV
Chain of 5-hydroxytryptamine receptor 2A (O46635 whole entry): as above
Chain of Cytochrome P450 2D6 (P10635 whole entry): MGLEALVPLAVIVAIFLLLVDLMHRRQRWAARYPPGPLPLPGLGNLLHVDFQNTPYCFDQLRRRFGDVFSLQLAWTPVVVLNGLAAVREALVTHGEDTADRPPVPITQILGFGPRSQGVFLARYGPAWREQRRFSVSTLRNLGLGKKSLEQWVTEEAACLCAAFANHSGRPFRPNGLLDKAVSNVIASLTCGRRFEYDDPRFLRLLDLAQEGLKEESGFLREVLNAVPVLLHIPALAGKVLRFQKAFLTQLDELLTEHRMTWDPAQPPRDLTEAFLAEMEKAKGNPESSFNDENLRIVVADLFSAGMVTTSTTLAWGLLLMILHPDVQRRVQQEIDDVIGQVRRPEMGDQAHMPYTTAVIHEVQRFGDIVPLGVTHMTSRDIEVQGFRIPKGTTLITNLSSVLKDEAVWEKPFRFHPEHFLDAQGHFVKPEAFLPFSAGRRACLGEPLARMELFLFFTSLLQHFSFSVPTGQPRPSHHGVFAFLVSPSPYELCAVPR
Chain of Beta-2 adrenergic receptor (P07550 whole entry): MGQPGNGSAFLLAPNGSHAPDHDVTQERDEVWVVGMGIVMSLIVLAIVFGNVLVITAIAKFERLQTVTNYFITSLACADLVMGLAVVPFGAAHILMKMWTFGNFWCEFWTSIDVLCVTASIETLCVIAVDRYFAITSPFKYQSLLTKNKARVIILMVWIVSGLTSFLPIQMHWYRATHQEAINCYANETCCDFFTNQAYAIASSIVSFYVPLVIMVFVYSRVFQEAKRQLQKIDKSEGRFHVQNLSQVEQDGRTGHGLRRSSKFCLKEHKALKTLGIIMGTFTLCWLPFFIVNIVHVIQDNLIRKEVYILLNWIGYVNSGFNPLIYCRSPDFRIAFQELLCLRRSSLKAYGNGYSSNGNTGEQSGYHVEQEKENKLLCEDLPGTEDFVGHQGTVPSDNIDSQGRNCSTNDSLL
Chain of Voltage-gated inwardly rectifying potassium channel KCNH2 (Q12809 whole entry): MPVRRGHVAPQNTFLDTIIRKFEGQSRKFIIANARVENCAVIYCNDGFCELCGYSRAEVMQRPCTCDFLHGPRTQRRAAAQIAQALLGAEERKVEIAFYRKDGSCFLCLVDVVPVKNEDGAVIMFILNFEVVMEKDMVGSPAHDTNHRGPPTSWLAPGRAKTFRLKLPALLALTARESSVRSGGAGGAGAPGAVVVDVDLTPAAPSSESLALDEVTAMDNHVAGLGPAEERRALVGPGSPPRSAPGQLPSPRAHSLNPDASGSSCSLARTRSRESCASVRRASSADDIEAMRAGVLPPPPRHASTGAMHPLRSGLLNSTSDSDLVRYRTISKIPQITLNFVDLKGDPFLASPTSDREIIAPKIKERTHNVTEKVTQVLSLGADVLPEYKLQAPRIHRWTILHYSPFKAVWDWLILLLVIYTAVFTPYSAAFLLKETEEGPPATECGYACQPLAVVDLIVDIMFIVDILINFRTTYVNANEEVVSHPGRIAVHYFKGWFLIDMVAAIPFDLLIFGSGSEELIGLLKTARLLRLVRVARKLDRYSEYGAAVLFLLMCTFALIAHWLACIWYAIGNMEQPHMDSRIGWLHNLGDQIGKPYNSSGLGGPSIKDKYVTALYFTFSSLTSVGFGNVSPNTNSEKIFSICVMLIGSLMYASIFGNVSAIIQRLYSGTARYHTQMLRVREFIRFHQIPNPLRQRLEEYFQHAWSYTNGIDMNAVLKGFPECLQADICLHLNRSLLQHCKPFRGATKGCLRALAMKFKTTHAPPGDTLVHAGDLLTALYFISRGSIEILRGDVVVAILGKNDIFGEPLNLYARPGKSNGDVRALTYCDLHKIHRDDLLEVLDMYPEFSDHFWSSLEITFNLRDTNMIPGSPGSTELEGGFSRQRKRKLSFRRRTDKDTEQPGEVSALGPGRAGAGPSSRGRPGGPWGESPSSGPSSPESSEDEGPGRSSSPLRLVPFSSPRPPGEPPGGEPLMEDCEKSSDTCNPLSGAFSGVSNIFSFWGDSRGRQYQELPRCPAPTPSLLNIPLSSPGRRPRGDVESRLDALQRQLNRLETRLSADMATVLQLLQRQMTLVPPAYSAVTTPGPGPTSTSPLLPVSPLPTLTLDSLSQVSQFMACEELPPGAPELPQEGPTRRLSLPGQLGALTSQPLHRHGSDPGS
Chain of Cytochrome P450 3A4 (P08684 whole entry): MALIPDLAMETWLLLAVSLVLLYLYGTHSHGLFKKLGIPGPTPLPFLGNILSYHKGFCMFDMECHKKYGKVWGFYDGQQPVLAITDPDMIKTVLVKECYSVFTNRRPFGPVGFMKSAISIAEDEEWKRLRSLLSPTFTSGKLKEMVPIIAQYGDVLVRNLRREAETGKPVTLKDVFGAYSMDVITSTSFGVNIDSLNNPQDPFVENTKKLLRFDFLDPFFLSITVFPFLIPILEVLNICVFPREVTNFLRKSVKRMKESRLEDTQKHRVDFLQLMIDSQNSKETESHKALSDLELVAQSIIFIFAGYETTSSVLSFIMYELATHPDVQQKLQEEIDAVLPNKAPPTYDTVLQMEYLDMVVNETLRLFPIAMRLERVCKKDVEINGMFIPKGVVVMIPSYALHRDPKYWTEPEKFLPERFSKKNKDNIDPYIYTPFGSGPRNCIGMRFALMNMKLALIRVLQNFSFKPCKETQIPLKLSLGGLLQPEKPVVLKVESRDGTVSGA
Chain of Cytochrome P450 2C9 (P11712 whole entry): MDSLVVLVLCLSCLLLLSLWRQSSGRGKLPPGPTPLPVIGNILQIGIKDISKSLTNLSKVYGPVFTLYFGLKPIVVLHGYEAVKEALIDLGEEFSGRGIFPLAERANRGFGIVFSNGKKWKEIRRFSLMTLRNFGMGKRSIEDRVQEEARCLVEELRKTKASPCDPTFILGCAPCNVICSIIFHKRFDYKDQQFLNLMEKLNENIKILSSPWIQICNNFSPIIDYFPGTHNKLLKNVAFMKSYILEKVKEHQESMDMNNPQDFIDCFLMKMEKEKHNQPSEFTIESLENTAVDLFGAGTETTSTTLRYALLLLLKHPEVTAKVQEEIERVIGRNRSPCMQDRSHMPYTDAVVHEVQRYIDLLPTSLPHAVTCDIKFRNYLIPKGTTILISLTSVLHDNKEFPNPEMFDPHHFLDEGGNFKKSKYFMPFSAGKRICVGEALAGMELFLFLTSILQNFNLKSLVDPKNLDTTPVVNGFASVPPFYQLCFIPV
Chain of Muscarinic acetylcholine receptor M3 (P20309 whole entry): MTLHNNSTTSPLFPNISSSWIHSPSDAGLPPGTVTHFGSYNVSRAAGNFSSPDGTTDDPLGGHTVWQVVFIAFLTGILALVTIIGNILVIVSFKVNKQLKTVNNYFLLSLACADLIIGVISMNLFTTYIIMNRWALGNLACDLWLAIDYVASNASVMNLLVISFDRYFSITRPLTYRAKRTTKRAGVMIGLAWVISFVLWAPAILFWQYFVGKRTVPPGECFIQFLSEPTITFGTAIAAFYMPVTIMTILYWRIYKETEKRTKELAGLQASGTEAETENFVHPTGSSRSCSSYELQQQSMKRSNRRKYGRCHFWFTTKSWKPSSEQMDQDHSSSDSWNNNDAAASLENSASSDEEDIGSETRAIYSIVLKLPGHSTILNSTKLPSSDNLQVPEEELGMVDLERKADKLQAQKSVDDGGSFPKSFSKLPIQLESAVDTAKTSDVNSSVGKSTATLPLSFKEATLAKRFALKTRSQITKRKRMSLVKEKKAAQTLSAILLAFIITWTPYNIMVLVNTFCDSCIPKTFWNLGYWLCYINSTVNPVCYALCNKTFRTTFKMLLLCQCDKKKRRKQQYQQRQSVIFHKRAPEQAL

SMILES | logD (physchem) | EC50 [1] | EC50 [2] | Emax [4] | microsomal CLint (in vitro) | Emax [5] | Papp A→B (MDR1) | other results
O=c1cc2c(nn1-c1ccccc1)CCNCC2 | -0.3 | > 10 µM | > 10 µM | – | – | – | – | –
Cn1nc2c(cc1=O)CCNCC2 | – | 0.338 µM | – | 52% | – | – | – | Emax [3]: 32%
O=c1cc2c(nn1Cc1ccc(C3CC3)cc1)CCNCC2 | 1.4 | 0.026 µM | 0.084 µM | 51% | < 7 µL/min/mg | 34% | – | –
O=c1c2c([nH]n1Cc1ccccc1)CCNCC2 | -0.5 | > 10 µM | > 10 µM | 57% | – | – | 2 ×10⁻⁶ cm/s | CL (Liver microsomes): 13 µL/min/mg
O=c1cc2c(nn1Cc1cccc(Cl)c1)CCNCC2 | 1.1 | 0.03 µM | 0.081 µM | 70% | < 7 µL/min/mg | 73% | 32 ×10⁻⁶ cm/s | –
N#Cc1ccc(Cn2nc3c(cc2=O)CCNCC3)cc1 | -0.1 | 6.63 µM | – | 51% | < 7 µL/min/mg | – | 11 ×10⁻⁶ cm/s | Emax [3]: 42%
c1ccc(Cn2cc3c(n2)CCNCC3)cc1 | 0.1 | 4.98 µM | > 10 µM | 65% | < 7 µL/min/mg | – | 27 ×10⁻⁶ cm/s | –
Cn1c2c(c(=O)n1Cc1ccccc1)CCNCC2 | 0 | 2.93 µM | > 10 µM | – | < 7 µL/min/mg | – | 13 ×10⁻⁶ cm/s | –
O=c1cc2c(nn1Cc1ccccc1Cl)CCNCC2 | 0.9 | 0.033 µM | 0.094 µM | 56% | < 7 µL/min/mg | 67% | – | –
Cc1nc2c3c(nc(Cc4ccccc4)n2n1)CCNCC3 | – | – | – | – | – | – | – | EC50 [6]: 1.8 µM; Ki [7]: > 22 µM; inhibition (INH) (Cytochrome P450 2D6): < 10%; inhibition (INH) (Cytochrome P450 1A2): < 10%; Ki [8]: 8.2 µM; Efficacy (Canis familiaris): 20%; concentration at 1 h [9]: 89 nM; Ki [10]: 3.7 µM; inhibition (INH) (Cytochrome P450 2C9): < 10%; Ki [11]: 7.6 µM; Emax [12]: 40%; inhibition (INH) (Cytochrome P450 3A4): < 10%
CC(C)CCn1nc2c(cc1=O)CCNCC2 | 0.6 | 0.062 µM | – | 77% | < 7 µL/min/mg | – | – | Emax [3]: 65%
O=c1cc2c(nn1Cc1ccc(OC(F)(F)F)cc1)CCNCC2 | 1.5 | 0.048 µM | > 10 µM | 66% | < 7 µL/min/mg | 58% | – | –
Cc1nnc2c3c(nc(Cc4ccccc4)n12)CCNCC3 | – | – | – | – | – | – | – | EC50 [6]: 1.6 µM; Emax [12]: 36%
c1ccc(COc2n[nH]c3c2CCNCC3)cc1 | 0.5 | 0.176 µM | 0.353 µM | – | < 7 µL/min/mg | 56% | 24 ×10⁻⁶ cm/s | –
Clc1cccc(N2CCNCC2)c1 | – | – | – | 71% | – | 35% | – | –
O=c1cc2c(nn1Cc1ccccc1)CCNCC2 | 0.3 | 0.031 µM | 0.358 µM | 79% | < 7 µL/min/mg | 48% | 25 ×10⁻⁶ cm/s | Ratio EC50 (Homo sapiens): 10
O=c1cc2c(nn1Cc1ccc(Cl)cc1)CCNCC2 | 1.1 | 0.031 µM | 0.267 µM | 40% | < 7 µL/min/mg | 73% | – | –
O=c1cc2c(nn1CCOc1ccccc1)CCNCC2 | 0.4 | > 10 µM | > 10 µM | – | < 7 µL/min/mg | – | – | –
O=c1[nH]n(Cc2ccccc2)c2c1CCNCC2 | -0.1 | > 10 µM | > 10 µM | 68% | < 7 µL/min/mg | – | – | –
O=c1cc2c(nn1Cc1ccc(C(F)(F)F)cc1)CCNCC2 | 1.1 | 0.125 µM | 0.473 µM | 47% | 10 µL/min/mg | 59% | – | –
O=c1cc2c(nn1Cc1ccccc1OC(F)(F)F)CCNCC2 | 1.2 | 0.107 µM | 0.142 µM | 57% | < 7 µL/min/mg | 86% | – | –
